Values quoted from earlier work in patent publication US20120201886A1, “Coated Extended Release Pharmaceutical Compositions Containing Paliperidone” (MICRO LABS LIMITED, priority 2010, published 2012).

In the case of Cc1nc2n(c(=O)c1CCN1CCC(c3noc4cc(F)ccc34)CC1)CCCC2O (racemic) [Paliperidone, (RS)-3-[2-[4-(6-fluorobenzo[d]isoxazol-3-yl)-1-piperidyl]ethyl]-7-hydroxy-4-methyl-1,5-diazabicyclo[4.4.0]deca-3,5-dien-2-one], the “solubility in 0.1 N hydrochloric acid” value (0.1 N hydrochloric acid) is given as “soluble”, the solubility in methanol (methanol) is given as “soluble” and the “solubility in methylene chloride” value (methylene chloride) is given as “freely soluble”. The solubility in water (water) was “practically insoluble”.
